Experiment: In vivo determination of metabolites in urine and feces (HRMS)
Set-up: species or system athymic nude mice
Description: To elucidate the in vivo activation mechanism of the H2O2-responsive prodrugs 10a and 10b, we investigated their metabolic fate in a xenograft mouse model. MDA-MB-468 tumor-bearing athymic nude mice received an intraperitoneal injection of a 1:1 mixture of 10a (nondeuterated, d 0) and 10b (deuterated, d 5) at equimolar doses (15 mg/kg each; total dose: 30 mg/kg). […] These end-products are consistent with a pathway initiated by H2O2-triggered oxidative deboronation of the boronic acid moiety in 10a/10b to yield phenol intermediates 11a/11b, which can undergo either hydrolysis to alcohols 12a/12b followed by N-demethylation, or direct N-demethylation to 13a/13b (Scheme ). The resulting 13a/13b serve as substrates for UDP-glucuronosyltransferase (UGT)-catalyzed conjugation with uridine diphosphate glucuronic acid, ultimately forming glucuronide conjugates 14a and 14b (Figure and Scheme ). Although intermediates 11a,b-13a,b were not detected in vivo, likely due to their rapid turnover and concentrations below the sensitivity of our LC–MS method, the proposed sequence is strongly supported by complementary cell-culture metabolism studies in which two key intermediates (11a,b and 12a,b) were observed (Figures S8 and S9). Detection of both isotopically labeled and unlabeled metabolites therefore provides robust evidence for H2O2-mediated oxidative deboronation in vivo, with the in vitro findings offering additional mechanistic confirmation.
Eight-week-old female athymic nude mice (immunodeficient) were anesthetized with isoflurane and subcutaneously inoculated in the flank with 7.5 × 10^6 MDA-MB-468 cells in 100 μL of a 1:1 mixture of Matrigel and Dulbecco’s Modified Eagle Medium (DMEM). Cells were sourced from the American Type Culture Collection (ATCC) and certified free of bloodborne pathogens. Mice were monitored daily for tumor development and weighed weekly. Upon establishment of palpable xenografts (typically one-week postinoculation), animals were randomized into treatment (n = 3) and control (n = 3) groups. For metabolite profiling, mice were individually housed in Labsand-lined cages (Labsand purchased from BrainTree Scientific, inc.). The treatment group received an IP injection of a 1:1 mixture of compounds 10a (d 0) and 10b (d 5) (100 μL) at a combined dose of […], formulated in DMSO/PBS (1×):PEG400 at a ratio of 2:19:19. The control group received the corresponding vehicle (PBS/PEG400/DMSO, 19:19:2). Food and water were provided ad libitum. Urine and Feces were collected separately at two intervals: 0–24 h and 24–48 h. All collected samples were subsequently stored in −80 °C.
Fecal samples (0.4 g) were thawed on ice from −80 °C. The feces were mixed and homogenized with a pestle in 10 mL centrifuge tube with LCMS grade MeOH (2 mL), then centrifuged for 5 min at 10,000g. The supernatant was transferred to a separate 2 mL centrifuge tube and dried. The resulting feces were subjected to SPE C-18 (Supelco Discovery DSC-18Lt SPE Tube) by initially using 5 mL 18 LCMS grade water and subsequently eluted with LCMS grade MeOH. The organic eluant was collected and dried. The resulting feces mixture was filtered by size exclusion (Amicon Ultra Centrifugal Filter, 3 kDa MWCO). Then the solution was transferred to a sample vial with 300 μL insert and analyzed by Shimadzu HRMS 9030 Q-TOF. Urine samples were thawed on ice from −80 °C, vortexed for 5 s and blended in aliquots of 20 μL MeCN. The samples were vortexed for 15 s and centrifuged for 10 min at 10,000g. The supernatant was transferred to a clean microcentrifuge tube and diluted 10× with 80:20 H2O/MeCN. The resulting solution was filtered by size exclusion (Amicon Ultra Centrifugal Filter, 3 kDa MWCO) at 11k × g.
3. In vivo determination of metabolites from Xenograft models
Table S1. In vivo metabolites of 10a and 10b and HPLC retention time (Rt).a
0 – 24 h (R t/min) 24 – 48 h (R t/min)
Phase II metabolite urine feces urine feces
glucoside <LOD <LOD <LOD <LOD […]

[1] = urine 0–24 h after IP 1:1 mixture of 10a and 10b, total dose 30 mg/kg, HRMS

Compound: CCc1cc(N)ccc1OC1OC(C(=O)O)C(O)C(O)C1O (centres unmarked) [Compound 14a]
- phase II metabolite in feces (feces 0–24 h, Table S1): < LOD
- phase II metabolite in feces (feces 24–48 h, Table S1): < LOD
- phase II metabolite in urine [1]: presence
- phase II metabolite in urine (urine 24–48 h, Table S1): < LOD

Compound: [2H]C([2H])([2H])C([2H])([2H])c1cc(N)ccc1OC1OC(C(=O)O)C(O)C(O)C1O (centres unmarked) [Compound 14b]
- phase II metabolite in feces (feces 0–24 h, Table S1): < LOD
- phase II metabolite in feces (feces 24–48 h, Table S1): < LOD
- phase II metabolite in urine [1]: presence
- phase II metabolite in urine (urine 24–48 h, Table S1): < LOD

From paper PMC12703749, “H2O2–Responsive Anticancer Prodrug: Synthesis, Precision Deuteration in Search of In Vivo Metabolites, and Activation Pathway” (Journal of Medicinal Chemistry, 2025)
